Earlier results as cited in US12533416B2, “Krill oil for solubilizing poorly water-soluble dietary supplements and pharmaceutically active agents” (ID CARE UG (haftungsbeschränkt), priority 2018, dated 2026).

Details: Class 4 = low solubility

SMILES	BCS class (solubility / permeability)
Nc1nc2c(ncn2COCCO)c(=O)[nH]1 [Aciclovir, aciclovir]	BCS Class 4
CC[C@H]1OC(=O)[C@H](C)[C@@H](O[C@H]2C[C@@](C)(OC)[C@@H](O)[C@H](C)O2)[C@H](C)[C@@H](O[C@@H]2O[C@H](C)C[C@H](N(C)C)[C@H]2O)[C@](C)(O)C[C@@H](C)CN(C)[C@H](C)[C@@H](O)[C@]1(C)O [Azithromycin, azithromycin]	BCS Class 4
